Measured values: ChEMBL document CHEMBL1201862, “PubChem BioAssay data set” (2004)
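How tested: cells in 96-well plates exposed to compound for 48 hours at five concentrations. The concentration for 50% growth inhibition is given as GI50.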 Activity calls are given as the source filed them. No stated cut-off is given here; in the data, active = GI50 up to about 1.1 µM and inactive = higher.

Legend:
Assay in all cases: inhibition of tumour cell growth, NCI panel, 48 h
786-0 = system: 786-0
A498 = system: A498
A549 = system: A549
ACHN = system: ACHN
BT-549 = system: BT-549
CAKI-1 = system: CAKI-1
CCRF-CEM = system: CCRF-CEM
COLO 205 = system: COLO 205
DU-145 = system: DU-145
EKVX = system: EKVX
HCC 2998 = system: HCC 2998
HCT-116 = system: HCT-116
HCT-15 = system: HCT-15
HL-60 = system: HL-60
HOP-62 = system: HOP-62
HOP-92 = system: HOP-92
HT-29 = system: HT-29
Hs-578T = system: Hs-578T
IGROV-1 = system: IGROV-1
K562 = system: K562
KM12 = system: KM12
LOX IMVI = system: LOX IMVI
M14 = system: M14
MCF7 = system: MCF7
MDA-MB-231 = system: MDA-MB-231
MDA-MB-435 = system: MDA-MB-435
MDA-N = system: MDA-N
MOLT-4 = system: MOLT-4
Malme-3M = system: Malme-3M
NCI-H226 = system: NCI-H226
NCI-H23 = system: NCI-H23
NCI-H460 = system: NCI-H460
NCI-H522 = system: NCI-H522
NCI/ADR-RES = system: NCI/ADR-RES
OVCAR-3 = system: OVCAR-3
OVCAR-4 = system: OVCAR-4
OVCAR-5 = system: OVCAR-5
OVCAR-8 = system: OVCAR-8
PC-3 = system: PC-3
RPMI-8226 = system: RPMI-8226
RXF 393 = system: RXF 393
SF-268 = system: SF-268
SF-295 = system: SF-295
SF-539 = system: SF-539
SK-MEL-28 = system: SK-MEL-28
SK-MEL-2 = system: SK-MEL-2
SK-MEL-5 = system: SK-MEL-5
SK-OV-3 = system: SK-OV-3
SN12C = system: SN12C
SNB-19 = system: SNB-19
SNB-75 = system: SNB-75
SR = system: SR
SW-620 = system: SW-620
T47D = system: T47D
TK-10 = system: TK-10
U-251 = system: U-251
UACC-257 = system: UACC-257
UO-31 = system: UO-31

CC(=N\N=C\c1ccccn1)/C(C)=N/N=C(C)/C(C)=N/N=C(C)/C(C)=N/N=C/c1ccccn1
GI50 (786-0): > 100 µM (inactive)
GI50 (A498): > 100 µM (inactive)
GI50 (A549): > 100 µM (inactive)
GI50 (ACHN): > 100 µM (inactive)
GI50 (BT-549): > 100 µM (inactive)
GI50 (CAKI-1): > 100 µM (inactive)
GI50 (CCRF-CEM): 3.7 µM (inactive)
GI50 (COLO 205): > 100 µM (inactive)
GI50 (DU-145): > 100 µM (inactive)
GI50 (EKVX): > 100 µM (inactive)
GI50 (HCC 2998): > 100 µM (inactive)
GI50 (HCT-116): > 100 µM (inactive)
GI50 (HCT-15): > 100 µM
GI50 (HL-60): > 100 µM (inactive)
GI50 (HOP-62): > 100 µM (inactive)
GI50 (HOP-92): > 100 µM (inactive)
GI50 (HT-29): > 100 µM (inactive)
GI50 (Hs-578T): > 100 µM (inactive)
GI50 (IGROV-1): > 100 µM (inactive)
GI50 (K562): > 100 µM (inactive)
GI50 (KM12): > 100 µM (inactive)
GI50 (LOX IMVI): > 100 µM (inactive)
GI50 (M14): > 100 µM (inactive)
GI50 (MCF7): > 100 µM (inactive)
GI50 (MDA-MB-231): > 100 µM (inactive)
GI50 (MDA-MB-435): > 100 µM (inactive)
GI50 (MDA-N): > 100 µM (inactive)
GI50 (MOLT-4): > 100 µM (inactive)
GI50 (Malme-3M): > 100 µM (inactive)
GI50 (NCI-H226): > 100 µM (inactive)
GI50 (NCI-H23): > 100 µM (inactive)
GI50 (NCI-H460): > 100 µM (inactive)
GI50 (NCI-H522): > 100 µM (inactive)
GI50 (NCI/ADR-RES): > 100 µM (inactive)
GI50 (OVCAR-3): > 100 µM (inactive)
GI50 (OVCAR-4): > 100 µM (inactive)
GI50 (OVCAR-5): > 100 µM (inactive)
GI50 (OVCAR-8): > 100 µM (inactive)
GI50 (PC-3): > 100 µM (inactive)
GI50 (RPMI-8226): > 100 µM (inactive)
GI50 (RXF 393): > 100 µM (inactive)
GI50 (SF-268): > 100 µM (inactive)
GI50 (SF-295): > 100 µM (inactive)
GI50 (SF-539): > 100 µM (inactive)
GI50 (SK-MEL-28): > 100 µM (inactive)
GI50 (SK-MEL-2): > 100 µM (inactive)
GI50 (SK-MEL-5): > 100 µM (inactive)
GI50 (SK-OV-3): > 100 µM (inactive)
GI50 (SN12C): > 100 µM (inactive)
GI50 (SNB-19): > 100 µM (inactive)
GI50 (SNB-75): > 100 µM (inactive)
GI50 (SR): > 100 µM (inactive)
GI50 (SW-620): > 100 µM (inactive)
GI50 (T47D): > 100 µM (inactive)
GI50 (TK-10): > 100 µM (inactive)
GI50 (U-251): > 100 µM (inactive)
GI50 (UACC-257): > 100 µM (inactive)
GI50 (UO-31): > 100 µM (inactive)
